Laboratory results as given in ChEMBL document CHEMBL1123961 (J Med Chem, 1988).

Tests used:
[1] = biological target: Serotonin receptor 2a and 2c (5HT2A and 5HT2C) (Rattus norvegicus) (UniProt P08909+P14842)
Description: Hill coefficient of compound was determined

[2] = biological target: T1, Serotonin receptor 2a and 2c (5HT2A and 5HT2C) (Rattus norvegicus, UniProt P08909+P14842); test: Binding affinity at [3H]KET labeled sites of 5-hydroxytryptamine 2 receptor determined using [125I]- DOI as radioligand in rat frontal cortex; format: tissue-based
[3] = biological target: T1, Serotonin receptor 2a and 2c (5HT2A and 5HT2C); test: Binding affinity at [3H]DOB labeled sites of 5-hydroxytryptamine 2 receptor determined using [125I]- DOI as radioligand in rat frontal cortex; format: tissue-based
[4] = biological target: T1, Serotonin receptor 2a and 2c (5HT2A and 5HT2C); test: Binding affinity at 5-hydroxytryptamine 2 receptor determined using [125I]- DOI as radioligand in rat frontal cortex; format: tissue-based
[5] = biological target: T1, Serotonin receptor 2a and 2c (5HT2A and 5HT2C); test: Binding affinity at [3H]DOB labeled sites of 5-hydroxytryptamine 2 receptor was determined using [125I]- DOI as radioligand in rat frontal cortex; format: tissue-based
[6] = biological target: T1, Serotonin receptor 2a and 2c (5HT2A and 5HT2C); test: Binding affinity at [3H]KET labeled sites of 5-hydroxytryptamine 2 receptor was determined using [125I]- DOI as radioligand in rat frontal cortex; format: tissue-based

Serotonin receptor 2a and 2c (5HT2A and 5HT2C) (Rattus norvegicus), sequence (P08909 whole entry, looked up): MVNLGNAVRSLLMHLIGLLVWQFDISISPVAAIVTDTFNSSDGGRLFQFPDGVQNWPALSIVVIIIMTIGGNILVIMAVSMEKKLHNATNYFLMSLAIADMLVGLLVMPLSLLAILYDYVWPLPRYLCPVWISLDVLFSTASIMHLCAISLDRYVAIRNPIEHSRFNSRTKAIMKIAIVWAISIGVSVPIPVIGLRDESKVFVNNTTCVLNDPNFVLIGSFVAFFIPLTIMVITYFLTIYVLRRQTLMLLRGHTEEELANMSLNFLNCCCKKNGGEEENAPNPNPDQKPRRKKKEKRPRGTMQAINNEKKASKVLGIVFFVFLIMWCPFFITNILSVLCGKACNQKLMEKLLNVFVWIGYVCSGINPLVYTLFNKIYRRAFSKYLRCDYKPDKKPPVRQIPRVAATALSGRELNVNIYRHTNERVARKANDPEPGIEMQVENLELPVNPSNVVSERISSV
Serotonin receptor 2a and 2c (5HT2A and 5HT2C) (Rattus norvegicus), sequence (P14842 whole entry, looked up): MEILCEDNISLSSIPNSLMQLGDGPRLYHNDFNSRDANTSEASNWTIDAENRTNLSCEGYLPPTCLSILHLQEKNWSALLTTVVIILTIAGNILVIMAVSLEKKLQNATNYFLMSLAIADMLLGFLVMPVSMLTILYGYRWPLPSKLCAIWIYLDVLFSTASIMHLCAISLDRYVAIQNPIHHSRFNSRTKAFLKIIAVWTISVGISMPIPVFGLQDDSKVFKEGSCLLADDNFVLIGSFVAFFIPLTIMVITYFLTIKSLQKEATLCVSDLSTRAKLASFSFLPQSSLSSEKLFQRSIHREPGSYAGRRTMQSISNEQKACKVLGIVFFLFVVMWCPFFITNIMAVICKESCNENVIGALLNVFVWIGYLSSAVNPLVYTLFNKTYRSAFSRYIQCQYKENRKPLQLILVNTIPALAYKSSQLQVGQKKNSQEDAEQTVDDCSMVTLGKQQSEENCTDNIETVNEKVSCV

Compound	nH [1]	Ki [4] [nM]	also measured
NCCc1c[nH]c2ccc(O)cc12	0.9		
O=C(CCCN1CCC2(CC1)C(=O)NCN2c1ccccc1)c1ccc(F)cc1	0.75		
COc1cc(CC(C)N)c(OC)cc1I (racemic)	0.89	2.8	Ki [2]: 20 nM; Ki [3]: 0.7 nM
O=C(c1ccc(F)cc1)C1CCN(CCn2c(=O)[nH]c3ccccc3c2=O)CC1	0.87		
CN(C)CCCSc1ccccc1NC(=O)/C=C/c1ccccc1 [CINANSERIN]	0.76	5	Ki [5]: 3.8 nM; Ki [6]: 4.5 nM
COc1cc(C[C@@H](C)N)c(OC)cc1Br	0.84		
